PMC11033320, “Activation of p53 signaling and regression of breast and prostate carcinoma cells by spirooxindole-benzimidazole small molecules” (Frontiers in Pharmacology, 2024)

What was measured:
HL-60(TB) = assay: NCI anticancer screening, Leukemia HL-60(TB); format: cell-based; details: Homo sapiens, read-out: % Growth Inhibition (GI %)
From the text: (§1) The compound has been processed according to standard method NCI-60 Human Tumor Cell Lines Screen for organic compound at development therapeutic program (DTP). Requests for access to this national resource can be submitted online at: […]

HOP-62 = assay: NCI anticancer screening, Non-Small Cell Lung Cancer HOP-62; format: cell-based; details: Homo sapiens; HOP-62, 10 μM; read-out: % Growth Inhibition (GI %)
From the text: as §1

UACC-257 = assay: NCI anticancer screening, Melanoma UACC-257; format: cell-based; details: Homo sapiens; UACC-257, 10 μM; read-out: % Growth Inhibition (GI %)
From the text: as §1

U251 = assay: NCI anticancer screening, CNS Cancer U251; format: cell-based; details: Homo sapiens, U-251; U251, 10 μM; read-out: % Growth Inhibition (GI %)
From the text: as §1

CCRF-CEM = assay: NCI anticancer screening, Leukemia CCRF-CEM; format: cell-based; details: Homo sapiens, read-out: % Growth Inhibition (GI %)
From the text: as §1

HOP-92 = assay: NCI anticancer screening, Non-Small Cell Lung Cancer HOP-92; format: cell-based; details: Homo sapiens; HOP-92, 10 μM; read-out: % Growth Inhibition (GI %)
From the text: as §1

UO-31 = assay: NCI anticancer screening, Renal Cancer UO-31; format: cell-based; details: Homo sapiens; UO-31, 10 μM; read-out: % Growth Inhibition (GI %)
From the text: as §1

NCI-H522 = assay: NCI anticancer screening, Non-Small Cell Lung Cancer NCI-H522; format: cell-based; details: Homo sapiens; NCI-H522, 10 μM; read-out: % Growth Inhibition (GI %)
From the text: as §1

OVCAR-3 = assay: NCI anticancer screening, Ovarian Cancer OVCAR-3; format: cell-based; details: Homo sapiens; OVCAR-3, 10 μM; read-out: % Growth Inhibition (GI %)
From the text: as §1

SK-MEL-5 = assay: NCI anticancer screening, Melanoma SK-MEL-5; format: cell-based; details: Homo sapiens; SK-MEL-5, 10 μM; read-out: % Growth Inhibition (GI %)
From the text: as §1

TK-10 = assay: NCI anticancer screening, Renal Cancer TK-10; format: cell-based; details: Homo sapiens; TK-10, 10 μM; read-out: % Growth Inhibition (GI %)
From the text: as §1

SK-MEL-2 = assay: NCI anticancer screening, Melanoma SK-MEL-2; format: cell-based; details: Homo sapiens; SK-MEL-2, 10 μM; read-out: % Growth Inhibition (GI %)
From the text: as §1

SF-268 = assay: NCI anticancer screening, CNS Cancer SF-268; format: cell-based; details: Homo sapiens; SF-268, 10 μM; read-out: % Growth Inhibition (GI %)
From the text: as §1

MDA-MB-435 = assay: NCI anticancer screening, Melanoma MDA-MB-435; format: cell-based; details: Homo sapiens; MDA-MB-435, 10 μM; read-out: % Growth Inhibition (GI %)
From the text: as §1

HCT-116 = assay: NCI anticancer screening, Colon Cancer HCT-116; format: cell-based; details: Homo sapiens; HCT-116, 10 μM; read-out: % Growth Inhibition (GI %)
From the text: as §1

SN12C = assay: NCI anticancer screening, Renal Cancer SN12C; format: cell-based; details: Homo sapiens, read-out: % Growth Inhibition (GI %)
From the text: as §1

MOLT-4 = assay: NCI anticancer screening, Leukemia MOLT-4; format: cell-based; details: Homo sapiens; MOLT-4, 10 μM; read-out: % Growth Inhibition (GI %)
From the text: as §1

CAKI-1 = assay: NCI anticancer screening, Renal Cancer CAKI-1; format: cell-based; details: Homo sapiens; CAKI-1, 10 μM; read-out: % Growth Inhibition (GI %)
From the text: as §1

MDA-MB-468 = assay: NCI anticancer screening, Breast Cancer MDA-MB-468; format: cell-based; details: Homo sapiens, read-out: % Growth Inhibition (GI %)
From the text: as §1

ACHN = assay: NCI anticancer screening, Renal Cancer ACHN; format: cell-based; details: Homo sapiens, read-out: % Growth Inhibition (GI %)
From the text: as §1

HT29 = assay: NCI anticancer screening, Colon Cancer HT29; format: cell-based; details: Homo sapiens, HT-29; HT29, 10 μM; read-out: % Growth Inhibition (GI %)
From the text: as §1

MCF7 = assay: NCI anticancer screening, Breast Cancer MCF7; format: cell-based; details: Homo sapiens; MCF7, 10 μM; read-out: % Growth Inhibition (GI %)
From the text: as §1

MALME-3M = assay: NCI anticancer screening, Melanoma MALME-3M; format: cell-based; details: Homo sapiens, read-out: % Growth Inhibition (GI %)
From the text: as §1

[1] = MTT cytotoxicity to normal human lung fibroblast Wi-38 cell line; format: cell-based; details: Wi-38 normal lung fibroblast cells, mean ± SEM, read-out: percentage of Wi-38 viability
Experimental: Normal human lung fibroblast Wi-38 cell line was used to detect cytotoxicity of the studied compounds (Table S8). Wi-38 cell line was cultured in DMEM medium-contained 10% fetal bovine serum (FBS), seeded as 5x10^3 cells per well in 96-well cell culture plate and incubated at 37 °C in 5% CO2 incubator. After 24 h for cell attachment, serial concentrations of the synthetic compounds were incubated with Wi-38 cells for 72 h. Cell viability was assayed by MTT method (Mosmann, 1983). Twenty microliters of 5 mg/ml MTT (Sigma, USA) was added to each well and the plate was incubated at 37 °C for 3 h. Then MTT solution was removed, 100 µl DMSO was added and the absorbance of each well was measured with a microplate reader (BMG LabTech, Germany) at 570 nm.

HCC-2998 = assay: NCI anticancer screening, Colon Cancer HCC-2998; format: cell-based; details: Homo sapiens; HCC-2998, 10 μM; read-out: % Growth Inhibition (GI %)
From the text: as §1

A549/ATCC = assay: NCI anticancer screening, Non-Small Cell Lung Cancer A549/ATCC; format: cell-based; details: Homo sapiens, read-out: % Growth Inhibition (GI %)
From the text: as §1

SW-620 = assay: NCI anticancer screening, Colon Cancer SW-620; format: cell-based; details: Homo sapiens; SW-620, 10 μM; read-out: % Growth Inhibition (GI %)
From the text: as §1

HCT-15 = assay: NCI anticancer screening, Colon Cancer HCT-15; format: cell-based; details: Homo sapiens; HCT-15, 10 μM; read-out: % Growth Inhibition (GI %)
From the text: as §1

OVCAR-5 = assay: NCI anticancer screening, Ovarian Cancer OVCAR-5; format: cell-based; details: Homo sapiens; OVCAR-5, 10 μM; read-out: % Growth Inhibition (GI %)
From the text: as §1

HS 578T = assay: NCI anticancer screening, Breast Cancer HS 578T; format: cell-based; details: Homo sapiens, read-out: % Growth Inhibition (GI %)
From the text: as §1

786-0 = assay: NCI anticancer screening, Renal Cancer 786-0; format: cell-based; details: Homo sapiens; 786-0, 10 μM; read-out: % Growth Inhibition (GI %)
From the text: as §1

SNB-75 = assay: NCI anticancer screening, CNS Cancer SNB-75; format: cell-based; details: Homo sapiens; SNB-75, 10 μM; read-out: % Growth Inhibition (GI %)
From the text: as §1

NCI/ADR-RES = assay: NCI anticancer screening, Ovarian Cancer NCI/ADR-RES; format: cell-based; details: Homo sapiens, read-out: % Growth Inhibition (GI %)
From the text: as §1

| SMILES | inhibition at 10 µM (HL-60(TB)) | inhibition at 10 µM (HOP-62) | inhibition at 10 µM (UACC-257) | inhibition at 10 µM (U251) | inhibition at 10 µM (CCRF-CEM) | inhibition at 10 µM (HOP-92) | inhibition at 10 µM (UO-31) | inhibition at 10 µM (NCI-H522) | inhibition at 10 µM (OVCAR-3) | inhibition at 10 µM (SK-MEL-5) | inhibition at 10 µM (TK-10) | inhibition at 10 µM (SK-MEL-2) | inhibition at 10 µM (SF-268) | inhibition at 10 µM (MDA-MB-435) | inhibition at 10 µM (HCT-116) | inhibition at 10 µM (SN12C) | inhibition at 10 µM (MOLT-4) | inhibition at 10 µM (CAKI-1) | inhibition at 10 µM (MDA-MB-468) | melting point | other results |
| --- | --- | --- | --- | --- | --- | --- | --- | --- | --- | --- | --- | --- | --- | --- | --- | --- | --- | --- | --- | --- | --- |
| O=C(c1nc2ccccc2[nH]1)[C@H]1[C@H](c2ccc(F)cc2)C2CSCN2[C@]12C(=O)Nc1ccccc12 (stereo partly drawn) [Compound 6f, (3S,6′R)-6'-(1H-Benzo [d]imidazole-2-carbonyl)-7'-(4-fluorophenyl)-3′,6′,7′,7a′-tetrahydro-1′H-spiro [indoline-3.5′-pyrrolo [1,2-c]thiazol]-2-one] | 93.1% | 104% | 83.9% | 93.5% | 98.2% | 112% | 77% | 79.5% | 101% | 94.7% | 101% | 102% | 96.3% | 94.6% | 92.9% | 91.1% | 83.6% | 90% | 94.2% | 233 to 235 °C | inhibition at 10 µM (ACHN): 94.2%; inhibition at 10 µM (HT29): 85.7%; inhibition at 10 µM (MCF7): 87.4%; inhibition at 10 µM (MALME-3M): 94.2%; viability at 72 h, 5 µM [1]: 47.39 ± 0.092%; inhibition at 10 µM (HCC-2998): 97%; inhibition at 10 µM (A549/ATCC): 78.6%; inhibition at 10 µM (SW-620): 91.1%; inhibition at 10 µM (HCT-15): 93.6%; inhibition at 10 µM (OVCAR-5): 100%; inhibition at 10 µM (HS 578T): 98%; inhibition at 10 µM (786-0): 99%; inhibition at 10 µM (SNB-75): 89.8%; inhibition at 10 µM (NCI/ADR-RES): 99.4% |
| O=C(c1nc2ccccc2[nH]1)[C@H]1[C@H](c2ccc(Cl)cc2Cl)C2CSCN2[C@]12C(=O)Nc1ccccc12 (stereo partly drawn) [Compound 6g, (3S,6′R)-6'-(1H-Benzo [d]imidazole-2-carbonyl)-7'-(2,4-dichlorophenyl)-3′,6′,7′,7a′-tetrahydro-1′H-spiro [indoline-3.5′-pyrrolo [1,2-c]thiazol]-2-one] | 80.7% | 80.3% | 74.4% | 79% | 60.1% | 77.6% | 39.7% | 71.7% | 69.7% | 81.9% | 107% | 84.4% | 47% | 56% | 56.4% | 63% | 43% | 36.9% | 69.2% | 235 to 237 °C | inhibition at 10 µM (ACHN): 63.7%; inhibition at 10 µM (HT29): 61.9%; inhibition at 10 µM (MCF7): 51%; inhibition at 10 µM (MALME-3M): 86.2%; viability at 72 h, 5 µM [1]: 40 ± 1.1%; inhibition at 10 µM (HCC-2998): 70.3%; inhibition at 10 µM (A549/ATCC): 62%; inhibition at 10 µM (SW-620): 72.9%; inhibition at 10 µM (HCT-15): 56%; inhibition at 10 µM (OVCAR-5): 86.1%; inhibition at 10 µM (HS 578T): 65.1%; inhibition at 10 µM (786-0): 85.9%; inhibition at 10 µM (SNB-75): 59.7%; inhibition at 10 µM (NCI/ADR-RES): 68.4% |
